The source made the active and inactive calls. The rule behind the calls is not given here.
Assays:
Streptococcus pneumoniae = assay: Antibacterial activity against Streptococcus pneumoniae ARC 2481 assessed as growth inhibition by broth microdilution method; assay type: functional
[1] = Fraction unbound in mouse plasma at 10 uM after 5 hrs by rapid equilibrium dialysis method; assay type: ADME, cell-free
[2] = In vivo clearance in Wistar rat at 5 to 10 mg/kg, iv administered as bolus dose; assay type: ADME, organism-based; parameters: dose 5-10 mg/kg, route intravenous
Enterococcus faecalis = assay: Antibacterial activity against vancomycin-resistant Enterococcus faecalis ARC 1618 assessed as growth inhibition by broth microdilution method; assay type: functional
Enterococcus faecium = assay: Antibacterial activity against linezolid-resistant Enterococcus faecium ARC 1239 assessed as growth inhibition by broth microdilution method; assay type: functional
[3] = Inhibition of Staphylococcus aureus TMK assessed as decrease in ATP production using dTDP and ADP as substrate after 3.5 hrs by luciferin/luciferase based luminescence analysis
Staphylococcus aureus [4] = assay: Antibacterial activity against methicillin-resistant and quinolone-resistant Staphylococcus aureus ARC 517 assessed as growth inhibition by broth microdilution method; assay type: functional
[5] = Fraction unbound in human plasma at 10 uM after 5 hrs by rapid equilibrium dialysis method; assay type: ADME, cell-free
[6] = Ratio of IC50 for human […] to IC50 for Staphylococcus aureus TMK
Streptococcus pyogenes = assay: Antibacterial activity against Streptococcus pyogenes ARC 2834 assessed as growth inhibition by broth microdilution method; assay type: functional
[7] = Cytotoxicity against human A549 cells; assay type: cell-based; conditions: read-out: MIC
Escherichia coli = assay: Antibacterial activity against Escherichia coli ARC 523 assessed as growth inhibition by broth microdilution method; assay type: functional
Staphylococcus aureus [8] = assay: Antibacterial activity against Staphylococcus aureus ARC 516 assessed as growth inhibition by broth microdilution method; assay type: functional
Pseudomonas aeruginosa = assay: Antibacterial activity against Pseudomonas aeruginosa ARC 545 assessed as growth inhibition by broth microdilution method; assay type: functional
[9] = test system: Staphylococcus epidermidis; assay: Antibacterial activity against Staphylococcus epidermidis ARC 323 assessed as growth inhibition by broth microdilution method; assay type: functional
[10] = Retention time of the compound by LC-MS method; assay type: physicochemical
[11] = Octanol-sodium phosphate buffer partition coefficient, log D of the compound at pH 7.4 by shake-flask method
Staphylococcus aureus [12] = assay: Antibacterial activity against methicillin-sensitive Staphylococcus aureus ARC 516 in mouse neutropenic thigh infection model assessed as reduction in number of colony-forming units at 400 mg/kg/day, ip administered bid every 12 hrs as equal divided dose starting 2 hrs after infection measured 24 hrs after drug dosing relative to control; assay type: functional; conditions: route intraperitoneal
Staphylococcus aureus [13] = assay: Antibacterial activity against methicillin-sensitive Staphylococcus aureus ARC 516 in mouse neutropenic thigh infection model assessed as inhibition of progression of bacterial infection at 100 to 200 mg/kg/day, ip administered once daily starting 2 hrs after infection measured 24 hrs after drug dosing; assay type: functional, organism-based
[14] = fT>MIC in mouse neutropenic thigh infection model infected with methicillin-sensitive Staphylococcus aureus ARC 516; parameters: species or system Thigh muscle
Staphylococcus aureus [15] = assay: Antibacterial activity against Staphylococcus aureus assessed as bacterial killing at 0.5 to 1x MIC measured after 24 hrs; assay type: functional, organism-based
Staphylococcus aureus [16] = assay: Antibacterial activity against Staphylococcus aureus assessed as log cell killing at greater than and equals to 0.5x MIC measured after 4 hrs; assay type: functional
Staphylococcus aureus [17] = assay: Antibacterial activity against Staphylococcus aureus assessed as bacterial killing; assay type: functional, organism-based

SMILES | IC50 [3] [nM] | Retention_time [10] [min] | MIC (Staphylococcus aureus [4]) [µg/mL] | logD [11] | MIC (Staphylococcus aureus [8]) [µg/mL] | further results
Cc1cn([C@H]2CCCN([C@H](CC(C)(C)C)c3ccc(C(=O)O)c(Oc4cccc(Br)c4)c3)C2)c(=O)[nH]c1=O | 0.8 |  |  |  |  | MIC90 (Streptococcus pneumoniae): 0.03 µg/mL; fraction unbound at 5 h, 10 µM [1]: < 0.003; clearance [2]: 42 mL/min/kg; MIC (Enterococcus faecalis): 1 µg/mL; MIC (Enterococcus faecium): 0.25 µg/mL; MIC90 (Staphylococcus aureus [4]): 1 µg/mL; fraction unbound at 5 h, 10 µM [5]: 0.032; Ratio IC50 [6]: > 25000; MIC90 (Streptococcus pyogenes): 0.5 µg/mL; MCC [7]: > 64 µg/mL; MIC (Escherichia coli): > 64 µg/mL; MIC90 (Staphylococcus aureus [8]): 1 µg/mL; MIC (Pseudomonas aeruginosa): > 64 µg/mL; MIC [9]: 2 µg/mL
O=Cc1cccc(O)c1F |  | 1.23 |  |  |  | 
Cc1cn([C@H]2CCCN(Cc3cccc(Oc4cccc(Cl)c4)c3)C2)c(=O)[nH]c1=O | 1170 |  |  |  |  | 
CCC[C@H](c1ccc(C(=O)O)c(Oc2cccc(Cl)c2)c1F)N1CCC[C@H](n2cc(C)c(=O)[nH]c2=O)C1 | 6 | 1.84 | 1 | 0.53 | 2 | clearance [2]: 64 mL/min/kg; fraction unbound at 5 h, 10 µM [5]: < 0.01
CC(C)CC(O)c1ccc(Br)c(F)c1F (stereo unspecified) |  | 3.24 |  |  |  | 
Cc1cn([C@H]2CCCN(C(CC(C)C)c3ccc(C#N)c(F)c3F)C2)c(=O)[nH]c1=O (stereo partly specified) |  | 1.93 |  |  |  | 
Cc1c(CN2CCC[C@H](n3cc(C)c(=O)[nH]c3=O)C2)cccc1Oc1cc(F)cc(Cl)c1 | 9260 | 2.3 |  |  |  | 
CCOc1c(CN2CCC[C@H](n3cc(C)c(=O)[nH]c3=O)C2)cccc1Oc1cc(F)cc(Cl)c1 | 625 | 2.32 |  |  |  | 
Cc1cn([C@H]2CCCN(Cc3cccc(Oc4cccc(Cl)c4)c3C#N)C2)c(=O)[nH]c1=O | 1190 | 2.16 |  |  |  | 
CCC(O)c1ccc(Br)c(Oc2cccc(Cl)c2)c1OC (stereo unspecified) |  | 3.27 |  |  |  | 
Cc1cn([C@H]2CCCN([C@@H](CC(C)C)c3ccc(C(=O)O)c(Oc4cccc(Cl)c4)c3F)C2)c(=O)[nH]c1=O | 1 | 2 | 0.5 | 0.57 | 0.5 | MIC90 (Streptococcus pneumoniae): 0.13 µg/mL; fraction unbound at 5 h, 10 µM [1]: 0.005; clearance [2]: 38 mL/min/kg; MIC (Enterococcus faecalis): 4 µg/mL; MIC (Enterococcus faecium): 2 µg/mL; fold change (FC) (Staphylococcus aureus [12]): 10; fraction unbound at 5 h, 10 µM [5]: 0.007; Ratio IC50 [6]: > 25000; MIC (Streptococcus pyogenes): 2 µg/mL; inhibition (Staphylococcus aureus [13]): Active; MIC (Escherichia coli): > 64 µg/mL; fT>MIC [14]: 27%; MIC (Pseudomonas aeruginosa): > 64 µg/mL; MIC [9]: 4 µg/mL
CCC[C@@H](c1ccc(C(=O)O)c(Oc2cccc(Cl)c2)c1F)N1CCC[C@H](n2cc(C)c(=O)[nH]c2=O)C1 | 3 | 1.86 | 0.5 | 0.51 | 1 | fraction unbound at 5 h, 10 µM [1]: 0.007; clearance [2]: 18 mL/min/kg; fraction unbound at 5 h, 10 µM [5]: 0.007
CC[C@@H](c1ccc(C(=O)O)c(Oc2cccc(Cl)c2)c1F)N1CCC[C@H](n2cc(C)c(=O)[nH]c2=O)C1 | 3 | 1.72 | 1 | 0.11 | 4 | fraction unbound at 5 h, 10 µM [5]: 0.011
CCC(c1ccc(C(=O)O)c(Oc2cccc(Cl)c2)c1OC)N1CCC[C@H](n2cc(C)c(=O)[nH]c2=O)C1 (stereo partly specified) |  | 2.29 |  |  |  | 
CC[C@H](c1ccc(C(=O)O)c(Oc2cccc(Cl)c2)c1)N1CCC[C@H](n2cc(C)c(=O)[nH]c2=O)C1 | 14 |  | 2 | 0.22 | 2 | Activity (Staphylococcus aureus [15]): inactive; LCK (Staphylococcus aureus [16]): >3; Activity (Staphylococcus aureus [17]): Dose-dependent effect
Cc1cn([C@H]2CCCN(Cc3ccc(C(=O)O)c(Oc4cccc(Cl)c4)c3F)C2)c(=O)[nH]c1=O | 12 | 1.89 | 16 | -0.59 | 32 | 
CC[C@H](c1ccc(C(=O)O)c(Oc2cccc(Cl)c2)c1OC)N1CCC[C@H](n2cc(C)c(=O)[nH]c2=O)C1 | 69 | 1.55 | > 16 | -0.13 | > 16 | fraction unbound at 5 h, 10 µM [1]: 0.006; clearance [2]: 84 mL/min/kg; fraction unbound at 5 h, 10 µM [5]: 0.015
Cc1cn([C@H]2CCCN(Cc3cccc(Oc4cc(F)cc(Cl)c4)c3Br)C2)c(=O)[nH]c1=O | 581 | 2.34 |  |  |  | 
CCC[C@@H](c1ccc(C(=O)O)c(Oc2cccc(Cl)c2)c1OC)N1CCC[C@H](n2cc(C)c(=O)[nH]c2=O)C1 | 4 |  | 4 | 0.13 | 8 | fraction unbound at 5 h, 10 µM [5]: 0.065
Cc1cn([C@H]2CCCN(C(CC(C)C)c3ccc(Br)c(F)c3F)C2)c(=O)[nH]c1=O (stereo partly specified) |  | 3.1 |  |  |  | 

SMILES | IC50 [3] [nM] | Retention_time [10] [min] | MIC (Staphylococcus aureus [4]) [µg/mL] | logD [11] | MIC (Staphylococcus aureus [8]) [µg/mL] | further results
CCCc1c(CN2CCC[C@H](n3cc(C)c(=O)[nH]c3=O)C2)cccc1Oc1cc(F)cc(Cl)c1 | 67400 | 2.5 |  |  |  | 
CCC(c1ccc(Br)c(Oc2cccc(Cl)c2)c1OC)N1CCC[C@H](n2cc(C)c(=O)[nH]c2=O)C1 (stereo partly specified) |  | 2.41 |  |  |  | 
COc1c(CN2CCC[C@H](n3cc(C)c(=O)[nH]c3=O)C2)ccc(C(=O)O)c1Oc1cccc(Cl)c1 | 10 | 2.17 | 16 | -0.77 | 8 | 
CC[C@H](c1ccc(C(=O)O)c(Oc2cccc(Cl)c2)c1F)N1CCC[C@H](n2cc(C)c(=O)[nH]c2=O)C1 | 2 | 1.75 | 2 | 0.12 | 2 | clearance [2]: 119 mL/min/kg; fraction unbound at 5 h, 10 µM [5]: < 0.01
Cc1cn([C@H]2CCCN(Cc3cccc(Oc4cc(F)cc(Cl)c4)c3)C2)c(=O)[nH]c1=O | 2060 |  |  |  |  | 
CC[C@@H](c1ccc(C(=O)O)c(Oc2cccc(Cl)c2)c1OC)N1CCC[C@H](n2cc(C)c(=O)[nH]c2=O)C1 | 3 | 1.65 | 2 | -0.02 | 4 | MIC90 (Streptococcus pneumoniae): 2 µg/mL; fraction unbound at 5 h, 10 µM [1]: 0.011; clearance [2]: 73 mL/min/kg; MIC (Enterococcus faecalis): > 8 µg/mL; MIC (Enterococcus faecium): 8 µg/mL; MIC90 (Staphylococcus aureus [4]): 4 µg/mL; fraction unbound at 5 h, 10 µM [5]: 0.11; Ratio IC50 [6]: > 25000; MIC90 (Streptococcus pyogenes): 4 µg/mL; MCC [7]: > 64 µg/mL; MIC (Escherichia coli): > 64 µg/mL; MIC90 (Staphylococcus aureus [8]): 4 µg/mL; MIC (Pseudomonas aeruginosa): > 64 µg/mL; MIC [9]: 4 µg/mL
CC[C@@H](c1ccc(C(=O)O)c(Oc2cccc(Cl)c2)c1)N1CCC[C@H](n2cc(C)c(=O)[nH]c2=O)C1 | 18 |  | 4 | 0.22 | 2 | 
CCC[C@H](c1ccc(C(=O)O)c(Oc2cccc(Cl)c2)c1OC)N1CCC[C@H](n2cc(C)c(=O)[nH]c2=O)C1 | 30 | 2.18 | > 16 | 0.08 | > 16 | fraction unbound at 5 h, 10 µM [5]: 0.034
Cc1cn([C@H]2CCCN(C(CC(C)C)c3ccc(C(=O)O)c(Oc4cccc(Cl)c4)c3F)C2)c(=O)[nH]c1=O (stereo partly specified) |  | 1.99 |  |  |  | 
Cc1cn([C@H]2CCCN([C@H](CC(C)C)c3ccc(C(=O)O)c(Oc4cccc(Cl)c4)c3F)C2)c(=O)[nH]c1=O | 1 |  | 0.5 | 0.92 | 0.25 | MIC90 (Streptococcus pneumoniae): 0.13 µg/mL; fraction unbound at 5 h, 10 µM [1]: < 0.01; clearance [2]: 84 mL/min/kg; MIC (Enterococcus faecalis): 8 µg/mL; MIC (Enterococcus faecium): 2 µg/mL; MIC90 (Staphylococcus aureus [4]): 2 µg/mL; fraction unbound at 5 h, 10 µM [5]: 0.013; Ratio IC50 [6]: > 25000; MIC90 (Streptococcus pyogenes): 2 µg/mL; MIC (Escherichia coli): > 64 µg/mL; MIC90 (Staphylococcus aureus [8]): 2 µg/mL; MIC (Pseudomonas aeruginosa): > 64 µg/mL; MIC [9]: 2 µg/mL
COc1c(C=O)ccc(Br)c1Oc1cccc(Cl)c1 |  | 3.28 |  |  |  | 
CCC[C@@H](c1ccc(C(=O)O)c(Oc2cccc(Cl)c2)c1)N1CCC[C@H](n2cc(C)c(=O)[nH]c2=O)C1 | 18 |  | 4 |  | 4 | 
Cc1cn([C@H]2CCCN(Cc3ccc(C(=O)O)c(Oc4cccc(Cl)c4)c3)C2)c(=O)[nH]c1=O | 73 |  | 32 |  | 32 | 
O=Cc1cccc(Oc2cccc(Cl)c2)c1F |  | 2.88 |  |  |  | 
COc1c(CN2CCC[C@H](n3cc(C)c(=O)[nH]c3=O)C2)cccc1Oc1cc(F)cc(Cl)c1 | 474 | 3 |  |  |  | 
Cc1cn([C@H]2CCCN(Cc3cccc(Oc4cccc(Cl)c4)c3F)C2)c(=O)[nH]c1=O | 86 | 2 |  |  |  | 
CCC[C@H](c1ccc(C(=O)O)c(Oc2cccc(Cl)c2)c1)N1CCC[C@H](n2cc(C)c(=O)[nH]c2=O)C1 | 8 |  | 1 |  | 1 | 
Cc1cn([C@H]2CCCN(Cc3cccc(Oc4cc(F)cc(Cl)c4)c3Cl)C2)c(=O)[nH]c1=O | 779 | 2.31 |  |  |  | 
Cc1cn([C@H]2CCCN(C(CC(C)C)c3ccc(C#N)c(Oc4cccc(Cl)c4)c3F)C2)c(=O)[nH]c1=O (stereo partly specified) |  | 2.62 |  |  |  | 

From ChEMBL document CHEMBL3297666, “Antibacterial inhibitors of Gram-positive thymidylate kinase: structure-activity relationships and chiral preference of a new hydrophobic binding region” (J Med Chem, 2014)
